Measured values: patent publication US20090211893A1, “Photo-Activatable Amino Acids” (priority 2005, published 2009)

Columns and labels:
COS7 cells = test: Protein biosynthesis by incorporation of [3H]Phe; assay type: cell-based, monkey
Excerpt: Unnatural amino acids frequently are toxic to cells. To find out if this is the case for photo-amino acids of the invention, we monitored in COS7 cells protein biosynthesis by incorporation of [^3H]Phe and viability by trypan blue exclusion of cells grown in the presence or absence of the photo-amino acids photo-Leu, photo-Met and photo-Ile. Due to the lack of two essential amino acids in the growth medium, protein biosynthesis is reduced to about 65% of that in a full growth medium. […] Although cells grew slightly slower than in full growth medium, viability (Table 2) and cell morphology (not shown) were unaffected.

[1] = test system: E. coli beta-galactosidase; test: Activity of beta-galactosidase expressed in cells grown with photo-amino acids; assay type: cell-based, monkey; settings: COS 7 cells, 20 h in LM-2 with photo-amino acid; percent ± SD (n = 6) of value in DMEM + FCS
Excerpt: We furthermore tested, whether proteins produced by cells grown with photo-amino acids are functional or not. For that, we transfected cells with GFP-fusion constructs of the small GTPase Rab5 and of mutated Rab5 that is constitutively activated (GFP-Rab5QL) or dominant negative (GFP-Rab5SN)^19 and monitored the GFP fluorescence by confocal microscopy. Four hours after transfection, when cells were switched to media containing photo-amino acids, no GFP signal was detectable (see FIG. 7). […] Both, staining intensity and localization were unaffected by the presence of either of the photo-amino acids. Taking into account a frequency of substitution of photo-Met for Met of 35% (see below) and the amounts of Met in Rab5 and GFP, more than 80% of the fusion protein will have photo-Met in both the Rab5- and the GFP-part of the fusion, more than 99% in at least one of the two parts. […] To corroborate this with a quantitative assay, we measured the activity of beta-galactosidase that was expressed in the absence or presence of photo-amino acids (see Table 4). Activity in LM-2 labeling medium was 79% of that in full DMEM. The addition of either of the three photo-amino acids or of a mixture of photo-Met and photo-Leu had no significant additional effect. E. coli beta-galactosidase contains 23 methionines of which on average 8 would be replaced by photo-Met; less than 0.01% of the protein are expected to have no substitution by photo-Met. We conclude that photo-amino acids are non-toxic to cultivated mammalian cells and can, at least partially, functionally replace branched chain amino acids and methionine.

## CC1(CCC(N)C(=O)O)N=N1 [photo-Met, L-2-amino-5,5′-azi-hexanoic acid]
COS7 cells; LM-2 medium supplement, value in full DMEM medium set to 100, average ± SD of triplicate
  Protein synthesis: 76.0 ± 6.4
COS7 cells; addition to LM-2 medium
  effect on protein biosynthesis: increased protein biosynthesis
[1]
  beta-galactosidase activity: 73 ± 5%
